Molecules are shown by their SMILES. Like-named read-outs stand apart in the source and are kept apart here.

Data set [1] relates to P. falciparum F32-ART5 (artemisinin-resistant strain). Description: Standard chemosensitivity assay (SYBR Green I), F32-ART5. It counts as cell-based, Plasmodium falciparum. The following applies: Plasmodium falciparum, F32, 48 h, read-out: P. falciparum Strains Mean IC50, F32-ART5, 48 h; ^1 n = 1, ^2 n = 2. Here is the method: (§1) F32-ART5, an artemisinin-resistant strain and F32-TEM, an artemisinin-sensitive strain, were obtained from the parental clone F32-Tanzania, respectively under regular drug pressure cycles of increasing artemisinin concentrations for 5 years and without any artemisinin pressure. After these drug pressure cycles allowing selection of the F32-ART5 strain, regular drug pressures were performed to maintain its phenotype. […] Briefly, parasites were cultured in RPMI 1640 (Fisher Scientific, Waltham, Illkirch-Graffenstaden, France) supplemented with 5% type AB human serum (Etablissement français du Sang, Toulouse, France) and adjusted at a parasitemia of 1% and 2% hematocrit with type O human at 37 °C and 5% CO2. Parasite development was daily monitored by Giemsa staining.
(§2) Briefly, for the determination of IC50 values, the chemosensitivity assay was carried out in 96-well culture plates on D-sorbitol ring-stage synchronized parasites and antiplasmodial activities were evaluated using the SYBR Green I method. Drug testing was performed in triplicates in a dose range of 5 to 7 concentrations. […] Parasites were left to proliferate with the given compounds for 48 h at 37 °C and 5% CO2. After this period, pellets were washed 3 times in sterile PBS prior to putting the plates at −20 °C overnight to lyse all red blood cells. The following day, the plates were thawed at room temperature, 100 µL of each well was transferred into a black 96-well plate to which another 100 µL of 2× PBS-diluted SYBR Green I (Sigma-Aldrich) was added and left to incubate for 2 h at room temperature prior to reading the plates on BioTek FL× 800 Microplate Fluorescence Reader (λexcitation = 485 nm, λemission = 528 nm).
(§3) IC50 values were determined using GraphPad Prism by drawing the curve % inhibition vs. [Drug] and using a four-parameter dose–response curve with the following equation: Y=Bottom+ Top−Bottom/1+x^Hill Slope/IC50Hill Slope

In data set [2] the test system is P. falciparum F32-ART5 (artemisinin-resistant). Description: Recrudescence assay, F32-ART5. It counts as cell-based, Plasmodium falciparum. Particulars: artemisinin 18 µM, (RS/SR)-2F 5 µM; for Median (Range) Recrudescence Time, F32-ART5: 48 h treatment, followed 30 days. Here is the method: (§4) The lead compound, (RS/SR)-2F, was tested in a recrudescence assay, to assess cross-resistance with artemisinin, according to Ménard et al.. Briefly, F32-TEM and F32-ART5 parasites were synchronized at ring-stage by D-sorbitol treatment prior to treating them with the drug of interest for 48 h, then washed and allowed to grow in drug-free medium. Parasitemia was monitored every other day for 30 days to determine the day when parasite cultures reached the t0 initial parasitemia. […] Artemisinin was used as control to confirm differences in recrudescence times between both strains. Three independent experiments were performed for (RS/SR)-2F and artemisinin tested in parallel.

Data set [3] concerns P. falciparum chloroquine-resistant strain FcB1-Columbia. Description: Antiplasmodial screen at 10 µM and chemosensitivity assay (SYBR Green I), FcB1-Columbia. It counts as cell-based, Plasmodium falciparum. Particulars: FcB1-Columbia strain, read-out: IC50 on P. falciparum.
Data set [4] relates to P. falciparum F32-TEM (artemisinin-sensitive strain). Description: Standard chemosensitivity assay (SYBR Green I), F32-TEM. It counts as cell-based, Plasmodium falciparum. Particulars: Plasmodium falciparum, F32, 48 h, read-out: P. falciparum Strains Mean IC50, F32-TEM, 48 h; ^1 n = 1, ^2 n = 2. As to the method: as §1, §2, §3
The subject of data set [5] is P. falciparum F32-TEM (artemisinin-sensitive). Description: Recrudescence assay, F32-TEM. Particulars: 48 h treatment; artemisinin 18 µM, (RS/SR)-2F 5 µM; followed 30 days. It counts as cell-based, Plasmodium falciparum. Here is the method:
as §4

The test system of a further data set is Vero cells. The data set is described as follows: Cytotoxicity assay (MTT). Particulars: ratio cytotoxicity (Vero)/activity on Plasmodium. Here is the method:
(§5) Vero cells were cultured in MEM (Dutscher, Brumath, France) supplemented with 10% fetal bovine serum, 1× non-essential amino acids, 100 U/mL, 100 µg/mL penicillin/streptomycin, and 2 mM L-glutamine at 37 °C in a humidified 5% CO2 atmosphere. […] At this time, each well was microscope-examined for detection of possible precipitate formation prior to remove the supernatant by flicking the plate. 100 µL of a 0.5 mg/mL PBS-dissolved MTT tetrazolium (stock solution at 5 mg/mL) was then added to each well [48]. The plates were then incubated for 1 h at 37 °C and 5% CO2 prior to removing the supernatant and adding 100 µL of DMSO. Plates were gently shaken to dissolve formazan crystals resulting from the MTT tetrazolium reduction by living cells and read at 570 nm with BioTek µQuant Microplate Spectrophotometer.

The next data set can be described thus: Cytotoxicity assay (MTT). The following applies: African green monkey. As to the method: as §5
The nature of data set [6]: Homolysis of the NO–C bond measured by EPR. As to the method:
Homolysis rate constants kd’ were measured by EPR and estimated using Equation (1) as reported many times in the literature. Further, Ea and kd were estimated using Equation (2). (1) ln([nitroxide]∞−[nitroxide]t/[nitroxide]∞)=−kd·t (2) Ea=−RT ln([…] kd′ )

For a further data set, the system named is Adult S. mansoni. Description: In vitro antischistosomal activity on adult worms. The data set is classed as cell-based, Schistosoma mansoni. The following applies: adult S. mansoni, single dose 100 µg/mL, observation up to 8 h. Summed up:
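NMRI-strain adult worms, perfused from hamsters 42–47 days post-infection, held in RPMI 1640 (25 mM Hepes) with Tween 80/DMSO vehicle at 37 °C, 5% CO2 and exposed to 100 µg/mL drug, in duplicate. Moving worms counted hourly up to 8 h; no contraction over 30 s scored dead. Mean survival time from Kaplan–Meier analysis.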

In the case of `C[C@@H]1CC[C@H]2[C@@H](C)C(=O)O[C@@H]3O[C@@]4(C)CC[C@@H]1[C@]32OO4` [Artemisinin, reference compound], the IC50 in data set [1] worked out at 0.02 ± 0.002 µM; in data set [3] (Plasmodium falciparum), 0.04 ± 0.007 µM; in [4] it was 0.02 ± 0.001 µM. Also, the “Median (Range) Recrudescence Time, F32-ART5” value in data set [2] was 9 (7–11) Days. Besides, in data set [2] (F32-TEM versus F32-ART5), the “Mean ± SEM Difference of Recrudescence Time” value was above 16.3 ± 3.7 days. Also, in [5], the “Median (Range) Recrudescence Time, F32-TEM” value is given as > 30 (16→30) Days. Besides, the “Selectivity Index” value in the data set on Vero cells turned out to be 8000. In “Cytotoxicity assay (MTT)” (Vero cells), this molecule registered a 50% inhibitory concentration (IC50) at 48 h of 160 ± 12 µM.

As for `CCOP(=O)(OCC)C(N(OC(C)c1cc(-c2ccccn2)nc(-c2ccccn2)c1)C(C)(C)CO)C(C)(C)C` (centres unmarked) [(RS/SR)-2F, Diethyl(1-((1-([2,2′:6′,2′′-terpyridin]-4′-yl)ethoxy)(1-hydroxy-2-methylpropan-2-yl)amino)-2,2-dimethylpropyl)phosphonate], the IC50 in [1] is 0.5 ± 0.1 µM; in [3], 0.3 µM; in data set [4] it was 0.6 ± 0.1 µM. For the same molecule, the “Median (Range) Recrudescence Time, F32-ART5” value in data set [2] was 16 (15–17) Days. Moreover, the figures for the “activation energy Ea” value in data set [6] (MeOH/water 1:1 pH = 7.4) and in data set [6] (t-BuPh) were 118.2 kJ/mol and 119.7 kJ/mol, respectively. Further, the “re-estimated homolysis rate constant kd at 120 °C” value in data set [6] (MeOH/water 1:1 pH = 7.4) is 46.7 10^−3 s^−1; in data set [6] (t-BuPh), 29.9 10^−3 s^−1. Besides, the “half-lifetime t1/2 at 37 °C” value came to 64.8 h in [6] (MeOH/water 1:1 pH = 7.4 (aqueous medium)) and 115 h in [6] (t-BuPh). Also, the “homolysis rate constant kd′” value in data set [6] (MeOH/water 1:1 pH = 7.4, 81 °C) was 8.7 10^−4s^−1; in data set [6] (t-BuPh, 81 °C), 5.3 10^−4s^−1. Besides, the half-life in [6] (buffer, pH 7.4, half-lifetime t1/2 at 37 °C, MeOH/water 1:1 pH = 7.4 (aqueous medium)) lay in the range of 48 to 96 h; in [6] (half-lifetime t1/2 at 37 °C, t-BuPh), 72 to 120 h. In addition, the “Median (Range) Recrudescence Time, F32-TEM” value in [5] is above 30 days. In addition, the “S. mansoni Mean Survival Time” value with Adult S. mansoni was 2.1 ± 0.1 h. The “Selectivity Index” value in the data set with Vero cells is 1. Besides, half-maximal inhibition in the data set “Cytotoxicity assay (MTT)” (Cytotoxicity Mean IC50, Vero cell lines, 48 h, MTT) (IC50 at 48 h) required 0.8 ± 0.3 µM.

The values are drawn from PMC7503767, “Alkoxyamines Designed as Potential Drugs against Plasmodium and Schistosoma Parasites” (Molecules, 2020).
